Measured values as given in patent US20120141440A1, “FOAMYVIRUS VECTORS AND METHODS OF USE” (priority 2009, published 2012).

Test system: 293T cells
Test: Western blot of protein expressed from wild-type and human codon optimized foamyvirus gag, pol and env constructs
Type: cell-based
Conditions: optimized vs wild-type sequence
Source text: To assessing the amount of protein that was present in virus producing cells upon transfection of the human codon usage-optimized cDNAs in comparison with the wild-type sequences, 293T packaging cells were transfected with equal amounts of the corresponding plasmids in sequential dilutions. DNA (pUC19) from a cloning vector was utilized to keep the absolute amount of DNA transfected into 293T cells the same. For FV gag and pol, the only difference between the two plasmids was the optimization of the FV gene for human codon usage. For the PFV env gene, the human optimized ORF in a vector with slice donor and acceptor sites was compared to the non-optimzed sequence expressed without splice sites in the same vector. Additionally, the expression of optimized simian FV (SFV) env contained on pUC19, like the above comparisons, was compared to a non-optimized SFV env contained on a pCL (Promega).

## SFV-1 env: Homo sapiens optimized Env cDNA from Simian Foamy Virus (SFV-1) (SEQ. ID. No. 4)
  protein levels increased through optimization of the FV genes for human codon usage: increased
